Results on 14 compounds are retold here after patent US11332459B2 (TEIJIN PHARMA LIMITED, priority 2017, dated 2022).

This test addresses T1, human TRPC6 (Homo sapiens, UniProt Q9Y210).
T1 construct: expressed in transfected cells
T1 sequence (Q9Y210 1-931): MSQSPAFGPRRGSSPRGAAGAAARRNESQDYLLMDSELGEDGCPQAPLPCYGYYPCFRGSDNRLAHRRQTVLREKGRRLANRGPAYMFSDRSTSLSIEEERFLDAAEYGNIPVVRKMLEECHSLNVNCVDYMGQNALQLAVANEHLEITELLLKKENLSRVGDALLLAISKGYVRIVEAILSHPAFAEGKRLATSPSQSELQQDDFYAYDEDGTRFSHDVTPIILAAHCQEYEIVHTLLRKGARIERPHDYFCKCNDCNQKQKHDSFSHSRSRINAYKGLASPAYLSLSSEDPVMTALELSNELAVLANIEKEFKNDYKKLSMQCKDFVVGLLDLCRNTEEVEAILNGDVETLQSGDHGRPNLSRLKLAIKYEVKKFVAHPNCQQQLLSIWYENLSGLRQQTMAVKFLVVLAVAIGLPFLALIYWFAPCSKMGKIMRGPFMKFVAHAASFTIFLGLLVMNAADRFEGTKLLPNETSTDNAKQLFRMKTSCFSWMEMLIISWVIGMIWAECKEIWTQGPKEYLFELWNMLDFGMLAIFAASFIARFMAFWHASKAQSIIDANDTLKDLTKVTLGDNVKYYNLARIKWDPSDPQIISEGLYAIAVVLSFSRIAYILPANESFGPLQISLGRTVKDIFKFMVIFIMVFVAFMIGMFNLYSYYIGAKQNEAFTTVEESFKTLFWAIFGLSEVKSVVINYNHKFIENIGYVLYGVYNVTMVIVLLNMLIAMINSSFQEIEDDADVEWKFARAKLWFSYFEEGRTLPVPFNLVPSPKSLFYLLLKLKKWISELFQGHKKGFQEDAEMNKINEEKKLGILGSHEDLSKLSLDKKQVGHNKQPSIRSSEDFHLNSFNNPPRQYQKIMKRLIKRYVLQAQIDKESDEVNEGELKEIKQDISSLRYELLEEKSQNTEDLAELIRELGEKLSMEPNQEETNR
The test can be described thus: TRPC6 calcium flux assay (FLIPR, OAG-stimulated calcium influx). In kind it is cell-based. Particulars: HEK293 cells stably transfected with human TRPC6, read-out: hTRPC6 Potency. The method, boiled down: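 HEK293 cells stably expressing human TRPC6, loaded with calcium dye 90–120 min at RT, then given compound for 25 min before OAG (50 uM final, 0.5% DMSO) in HEPES buffer pH 7.2 with 2 mM CaCl2. Background-subtracted FLIPR peak over 180 s normalized to OAG vs buffer; IC50 from dose plot.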
A general note: Calcium flux is commonly read through the fluorescence of an indicator in the cells.

With `N[C@@H]1CN(c2nc3cc(F)c(F)cc3n2Cc2ccc(F)cc2Cl)CC[C@H]1F` [Example 355, (3R,4R)-1-(1-(2-chloro-4-fluorobenzyl)-5,6-difluoro-1H-benzimidazol-2-yl)-4-fluoro-3-piperidinamine], the IC50 amounted to 0.037 µM. With `N[C@@H]1CN(c2nc3cc(F)c(F)cc3n2Cc2ccc(F)cc2C(F)(F)F)CC[C@H]1F` [Example 356, (3R,4R)-1-(5,6-difluoro-1-(4-fluoro-2-(trifluoromethyl)benzyl)-1H-benzimidazol-2-yl)-4-fluoro-3-piperidinamine], the IC50 worked out at 0.239 µM.

Consider `N[C@@H]1CN(c2nc3cc(F)c(F)cc3n2Cc2ccc(F)c(F)c2)CC[C@H]1F` [Example 357, (3R,4R)-1-(1-(3,4-difluorobenzyl)-5,6-difluoro-1H-benzimidazol-2-yl)-4-fluoro-3-piperidinamine], for which the IC50 was found to be 0.0245 µM. The value for `N[C@@H]1CN(c2nc3cc(F)c(F)cc3n2Cc2ccc(Cl)cc2F)CC[C@H]1F` [Example 358, (3R,4R)-1-(1-(4-chloro-2-fluorobenzyl)-5,6-difluoro-1H-benzimidazol-2-yl)-4-fluoro-3-piperidinamine] was 0.00647 µM. For `N[C@@H]1CN(c2nc3cc(F)c(F)cc3n2Cc2ccc(Cl)c(Cl)c2)CC[C@H]1F` [Example 359, (3R,4R)-1-(1-(3,4-dichlorobenzyl)-5,6-difluoro-1H-benzimidazol-2-yl)-4-fluoro-3-piperidinamine], the IC50 came to 0.238 µM. Turning to `N[C@@H]1CN(c2nc3cc(F)c(F)cc3n2Cc2ccc(Cl)c(F)c2)CC[C@H]1F` [Example 360, (3R,4R)-1-(1-(4-chloro-3-fluorobenzyl)-5,6-difluoro-1H-benzimidazol-2-yl)-4-fluoro-3-piperidinamine], the IC50 was 0.0429 µM. Then `N[C@@H]1CN(c2nc3cc(F)c(F)cc3n2Cc2ccc(C(F)(F)F)cc2)CC[C@H]1F` [Example 361, (3R,4R)-1-(5,6-difluoro-1-(4-(trifluoromethyl)benzyl)-1H-benzimidazol-2-yl)-4-fluoro-3-piperidinamine], with 0.0668 µM; and `N[C@@H]1CN(c2nc3cc(F)c(F)cc3n2Cc2ccc(OC(F)(F)F)cc2)CC[C@H]1F` [Example 362, (3R,4R)-1-(5,6-difluoro-1-(4-(trifluoromethoxy)benzyl)-1H-benzimidazol-2-yl)-4-fluoro-3-piperidinamine], with 0.256 µM. The value for `N[C@@H]1CN(c2nc3cc(F)c(F)cc3n2Cc2ccc(C(F)F)cc2)CC[C@H]1F` [Example 363, (3R,4R)-1-(1-(4-(difluoromethyl)benzyl)-5,6-difluoro-1H-benzimidazol-2-yl)-4-fluoro-3-piperidinamine] was 0.0313 µM; that for `N[C@@H]1CN(c2nc3cc(F)c(F)cc3n2Cc2cccc(OC(F)(F)F)c2)CC[C@H]1F` [Example 364, (3R,4R)-1-(5,6-difluoro-1-(3-(trifluoromethoxy)benzyl)-1H-benzimidazol-2-yl)-4-fluoro-3-piperidinamine] was 1.02 µM. The value for `N[C@@H]1CN(c2nc3cc(F)c(F)cc3n2Cc2cccc(C(F)(F)F)c2)CC[C@H]1F` [Example 365, (3R,4R)-1-(5,6-difluoro-1-(3-(trifluoromethyl)benzyl)-1H-benzimidazol-2-yl)-4-fluoro-3-piperidinamine] was 2.96 µM. For the compound `N#Cc1cccc(Cn2c(N3CC[C@@H](F)[C@H](N)C3)nc3cc(F)c(F)cc32)c1` [Example 366, 3-((2-((3R,4R)-3-amino-4-fluoro-1-piperidinyl)-5,6-difluoro-1H-benzimidazol-1-yl)methyl)benzonitrile], the IC50 was found to be 0.232 µM. Then `N[C@@H]1CN(c2nc3cc(F)c(F)cc3n2Cc2cccc(Cl)c2)CC[C@H]1F` [Example 367, (3R,4R)-1-(1-(3-chlorobenzyl)-5,6-difluoro-1H-benzimidazol-2-yl)-4-fluoro-3-piperidinamine], with 0.354 µM. As to `N[C@H]1CCCN(c2nc3ccccc3n2Cc2ccc(F)cc2)C1` [Example 368, (S)-1-(1-(4-fluorobenzyl)-1H-benzo[d]imidazol-2-yl)piperidin-3-amine], the IC50 came out at 0.0992 µM.
